According to paper PMC6273978, “Synthesis and Pharmacological Evaluation of Novel Pleuromutilin Derivatives with Substituted Benzimidazole Moieties” (Molecules, 2016):
Values after ≈ are worked out from the molar mass of the structure shown.

How the values were obtained:
S. vitulinus = assay: Oxford cup assay, zone of inhibition; type: cell-based, Staphylococcus vitulinus; conditions: Mammaliicoccus vitulinus
Description: (§1) The Oxford cup assays were carried out to evaluate the antibacterial activities against the above-mentioned six bacterial strains. The zones of inhibition for two concentrations (320 and 160 μg/mL) of the synthetic compounds and tiamulin fumarate were measured. The results of Oxford cup assay correspond with that obtained by agar dilution method (MICs) as a whole.
(§2) The procedure for Oxford cup assays was the same as that previously reported. Briefly, inoculums were prepared in 0.9% saline using McFarland standard and spread uniformly on nutrient agar plates. The 320 and 160 µg/mL of all the tested compounds were added individually into the Oxford cups that were placed at equal distances above the agar surfaces. The zone of inhibition for each concentration was measured after a 24–36 h incubation at 37 °C. The same procedure was repeated in triplicate.

[1] = test system: Staphylococcus aureus (S. aureus); assay: MIC testing, agar dilution method; type: cell-based; conditions: 36.5 °C, 24–48 h
Source text: (§3) The synthesized pleuromutilin derivatives 3 and 4a–l, with tiamulin fumarate used a as reference drug, were screened for their in vitro antibacterial activity against Escherichia coli (E. coli), Staphylococcus aureus (S. aureus), Methicillin-resistant Staphylococcus aureus (MRSA), Staphylococcus vitulinus (S. vitulinus), Staphylococcus warneri (S. warneri), and Staphylococcus haemolyticus (S. haemolyticus). The antibacterial activities are reported in Table 1 as the minimum inhibitory concentration (MIC) using the agar dilution method. The MICs of the 13 new pleuromutilin derivatives in vitro against E. coli ranged from 10 to 80 μg/mL; against S. aureus, MRSA, S. vitulinus, S. warneri, and S. haemolyticus ranged from 0.156 to 40 μg/mL, respectively.
(§4) The MIC for the synthesized compounds (3 and 4a–l) and tiamulin fumarate used as a reference drug were determined using the agar dilution method according to the National Committee for Clinical Laboratory Standards (NCCLS). Tested compounds were dissolved in 25%–40% DMSO to a solution with a concentration of 1280 µg/mL, whereas tiamulin fumarate was directly dissolved in 10 mL of distilled water at the same concentration as the tested compounds. All the solutions were then diluted twofold with sterile water to provide 11 dilutions (final concentration is 0.625 µg/mL). A 2 mL volume of the 2-fold serial dilution of each test compound/drug was incorporated into 18 mL of hot Muellere-Hinton agar medium. Inoculums, including five Gram (+), S. aureus, MRSA, S. vitulinus, S. warneri, S. haemolyticus, and one Gram (−), E. coli were prepared from blood slants and adjusted to approximately 10^5–10^6 CFU/mL with sterile saline (0.90% NaCl). A 10 µL amount of bacterial suspension was spotted onto Muellere-Hinton agar plates containing serial dilutions of the compounds/drug. The plates were incubated at 36.5 °C for 24–48 h. The same procedure was repeated in triplicate.

[2] = test system: Staphylococcus warneri (S. warneri); assay: MIC testing, agar dilution method; type: cell-based; conditions: 36.5 °C, 24–48 h
Source text: as §3, §4

[3] = test system: Escherichia coli (E. coli); assay: MIC testing, agar dilution method; type: cell-based; conditions: 36.5 °C, 24–48 h
Source text: as §3, §4

[4] = test system: Methicillin-resistant Staphylococcus aureus (MRSA); assay: MIC testing, agar dilution method; type: cell-based; conditions: 36.5 °C, 24–48 h
Source text: as §3, §4

[5] = test system: Staphylococcus haemolyticus (S. haemolyticus); assay: MIC testing, agar dilution method; type: cell-based; conditions: 36.5 °C, 24–48 h
Source text: as §3, §4

[6] = test system: Staphylococcus vitulinus (S. vitulinus); assay: MIC testing, agar dilution method; type: cell-based; conditions: Mammaliicoccus vitulinus, 36.5 °C, 24–48 h
Source text: as §3, §4

E. coli = assay: Oxford cup assay, zone of inhibition; type: cell-based; conditions: Escherichia coli
Description: as §1, §2

MRSA = assay: Oxford cup assay, zone of inhibition; type: cell-based; conditions: Staphylococcus aureus
Description: as §1, §2

S. warneri = assay: Oxford cup assay, zone of inhibition; type: cell-based; conditions: Staphylococcus warneri
Description: as §1, §2

S. aureus = assay: Oxford cup assay, zone of inhibition; type: cell-based; conditions: Staphylococcus aureus
Description: as §1, §2

S. haemolyticus = assay: Oxford cup assay, zone of inhibition; type: cell-based; conditions: Staphylococcus haemolyticus
Description: as §1, §2

Structure (SMILES) | MIC [1] [µg/mL] | MIC [2] [µg/mL] | MIC [3] [µg/mL] | MIC [4] [µg/mL] | MIC [6] [µg/mL] | zone of inhibition at 160 µg/mL (S. vitulinus) [mm] | zone of inhibition at 320 µg/mL (S. vitulinus) [mm] | MIC [5] [µg/mL] | zone of inhibition at 160 µg/mL (E. coli) [mm] | zone of inhibition at 320 µg/mL (E. coli) [mm] | zone of inhibition at 160 µg/mL (MRSA) [mm] | zone of inhibition at 320 µg/mL (MRSA) [mm] | zone of inhibition at 160 µg/mL (S. warneri) [mm] | zone of inhibition at 320 µg/mL (S. warneri) [mm] | zone of inhibition at 160 µg/mL (S. aureus) [mm] | zone of inhibition at 320 µg/mL (S. aureus) [mm] | zone of inhibition at 160 µg/mL (S. haemolyticus) [mm] | zone of inhibition at 320 µg/mL (S. haemolyticus) [mm]
C=C[C@]1(C)C[C@@H](OC(=O)CSc2nc3ccc(NC(=O)c4ccccc4Cl)cc3[nH]2)[C@]2(C)[C@H](C)CC[C@]3(CCC(=O)[C@H]32)[C@@H](C)[C@@H]1O [Compound 4a, 14-O-((2-Chlorobenzamide-5-aminobenzimidazole-2-yl)thioacetyl) mutilin] | 40 (≈ 60.2 µM) | 40 (≈ 60.2 µM) | 40 (≈ 60.2 µM) | 40 (≈ 60.2 µM) | 40 (≈ 60.2 µM) | 13.8 | 19.2 | 5 (≈ 7.53 µM) | 0 | 11.3 | 15.9 | 20.2 | 21.6 | 22.4 | 9.02 | 12.4 | 20.4 | 24.9
C=C[C@]1(C)C[C@@H](OC(=O)CSc2nc3ccc(NC(=O)c4cccc(Cl)c4)cc3[nH]2)[C@]2(C)[C@H](C)CC[C@]3(CCC(=O)[C@H]32)[C@@H](C)[C@@H]1O [Compound 4b, 14-O-((3-Chlorobenzamide-5-aminobenzimidazole-2-yl)thioacetyl) mutilin] | 40 (≈ 60.2 µM) | 20 (≈ 30.1 µM) | 80 (≈ 120 µM) | 20 (≈ 30.1 µM) | 10 (≈ 15.1 µM) | 20.5 | 23.8 | 20 (≈ 30.1 µM) | 10.4 | 0 | 17.3 | 21.7 | 16.5 | 19.5 | 12.3 | 15.8 | 20.3 | 20.4
C=C[C@]1(C)C[C@@H](OC(=O)CSc2nc3ccc(NC(=O)c4ccc(Cl)cc4)cc3[nH]2)[C@]2(C)[C@H](C)CC[C@]3(CCC(=O)[C@H]32)[C@@H](C)[C@@H]1O [Compound 4c, 14-O-((4-Chlorobenzamide-5-aminobenzimidazole-2-yl)thioacetyl) mutilin] | 40 (≈ 60.2 µM) | 40 (≈ 60.2 µM) | 40 (≈ 60.2 µM) | 40 (≈ 60.2 µM) | 40 (≈ 60.2 µM) | 20.5 | 21.8 | 40 (≈ 60.2 µM) | 17.2 | 17.7 | 14.6 | 15.5 | 19.2 | 22.2 | 14.3 | 16.5 | 16.9 | 20.9
C=C[C@]1(C)C[C@@H](OC(=O)CSc2nc3ccc(NC(=O)c4cccc(C)c4)cc3[nH]2)[C@]2(C)[C@H](C)CC[C@]3(CCC(=O)[C@H]32)[C@@H](C)[C@@H]1O [Compound 4e, 14-O-((3-Methylbenzamide-5-aminobenzimidazole-2-yl)thioacetyl) mutilin] | 40 (≈ 62.1 µM) | 40 (≈ 62.1 µM) | 80 (≈ 124 µM) | 40 (≈ 62.1 µM) | 40 (≈ 62.1 µM) | 18.1 | 20.3 | 40 (≈ 62.1 µM) | 0 | 0 | 25.6 | 27.8 | 20.8 | 21.5 | 17.9 | 19.4 | 18.3 | 20.8

Now from value to compound, other results behind:

MIC [1] [µg/mL] | MIC [2] [µg/mL] | MIC [3] [µg/mL] | MIC [4] [µg/mL] | MIC [6] [µg/mL] | Structure (SMILES) | zone of inhibition at 160 µg/mL (S. vitulinus) [mm] | zone of inhibition at 320 µg/mL (S. vitulinus) [mm] | MIC [5] [µg/mL] | zone of inhibition at 160 µg/mL (E. coli) [mm] | zone of inhibition at 320 µg/mL (E. coli) [mm] | zone of inhibition at 160 µg/mL (MRSA) [mm] | zone of inhibition at 320 µg/mL (MRSA) [mm] | zone of inhibition at 160 µg/mL (S. warneri) [mm] | zone of inhibition at 320 µg/mL (S. warneri) [mm] | zone of inhibition at 160 µg/mL (S. aureus) [mm] | zone of inhibition at 320 µg/mL (S. aureus) [mm] | zone of inhibition at 160 µg/mL (S. haemolyticus) [mm] | zone of inhibition at 320 µg/mL (S. haemolyticus) [mm]
10 (≈ 15.5 µM) | 40 (≈ 62.1 µM) | 80 (≈ 124 µM) | 40 (≈ 62.1 µM) | 40 (≈ 62.1 µM) | C=C[C@]1(C)C[C@@H](OC(=O)CSc2nc3ccc(NC(=O)c4ccccc4C)cc3[nH]2)[C@]2(C)[C@H](C)CC[C@]3(CCC(=O)[C@H]32)[C@@H](C)[C@@H]1O [Compound 4d, 14-O-((2-Methylbenzamide-5-aminobenzimidazole-2-yl)thioacetyl) mutilin] | 18.2 | 19.1 | 40 (≈ 62.1 µM) | 0 | 0 | 16.3 | 19.7 | 20.6 | 22.3 | 14.7 | 17.8 | 17.4 | 18.4
40 (≈ 62.1 µM) | 20 (≈ 31.1 µM) | 80 (≈ 124 µM) | 40 (≈ 62.1 µM) | 40 (≈ 62.1 µM) | C=C[C@]1(C)C[C@@H](OC(=O)CSc2nc3ccc(NC(=O)c4ccc(C)cc4)cc3[nH]2)[C@]2(C)[C@H](C)CC[C@]3(CCC(=O)[C@H]32)[C@@H](C)[C@@H]1O [Compound 4f, 14-O-((4-Methylbenzamide-5-aminobenzimidazole-2-yl)thioacetyl) mutilin] | 14 | 15.1 | 40 (≈ 62.1 µM) | 0 | 8.64 | 14.1 | 17.3 | 22.9 | 22.9 | 16.7 | 17.8 | 16.2 | 20.7
40 (≈ 60.6 µM) | 40 (≈ 60.6 µM) | 80 (≈ 121 µM) | 40 (≈ 60.6 µM) | 40 (≈ 60.6 µM) | C=C[C@]1(C)C[C@@H](OC(=O)CSc2nc3ccc(NC(=O)c4ccccc4OC)cc3[nH]2)[C@]2(C)[C@H](C)CC[C@]3(CCC(=O)[C@H]32)[C@@H](C)[C@@H]1O [Compound 4g, 14-O-((2-Methoxybenzamide-5-aminobenzimidazole-2-yl)thioacetyl) mutilin] | 16.2 | 18 | 10 (≈ 15.2 µM) | 0 | 9.38 | 19.1 | 21.5 | 18.5 | 20.1 | 13.7 | 18.3 | 24.3 | 25.6
40 (≈ 60.6 µM) | 40 (≈ 60.6 µM) | 40 (≈ 60.6 µM) | 40 (≈ 60.6 µM) | 40 (≈ 60.6 µM) | C=C[C@]1(C)C[C@@H](OC(=O)CSc2nc3ccc(NC(=O)c4cccc(OC)c4)cc3[nH]2)[C@]2(C)[C@H](C)CC[C@]3(CCC(=O)[C@H]32)[C@@H](C)[C@@H]1O [Compound 4h, 14-O-((3-Methoxybenzamide-5-aminobenzimidazole-2-yl)thioacetyl) mutilin] | 19.8 | 21.7 | 10 (≈ 15.2 µM) | 15.3 | 18 | 16.3 | 19.7 | 17.9 | 19.8 | 15.9 | 18.7 | 25.4 | 28.4
